Measurements reported in patent US7714105B2, “Use of fragments of oxytocin for the preparation of a pharmaceutical composition in order to create eustasis” (priority 2001, dated 2010).
Ends that are not written are not given here.

How the values were obtained:
Type in all cases: in vivo, rat
male Sprague-Dawley rats [1] = experiment: Locomotor activity observations in open-field arena; settings: 1 mg/kg subcutaneously for five consecutive days, studied three days after end of treatment, vs saline control
Method: (§1) Animals. Eight week-old male Sprague-Dawley rats (280-300 g) were obtained from B&K Universal AB, Sollentuna, Sweden.
(§2) Experimental procedure. SEQ ID NO: 5 was dissolved in physiological saline (1 mg/ml) and administered subcutaneously to six rats at a dose of 1 mg/kg for five consecutive days. Six rats received physiological saline only as a control. Two days after the last treatment, the rats were exposed to blood pressure determination with the cuff technique. The locomotor behaviour was studied three days after the end of the treatment. The next day the animals were decapitated and blood was collected.
(§3) Statistics. The results are presented as means ±SD. Statistical analysis was performed by means of 2-way ANOVA followed by Bonferroni's test for post hoc comparison. A Students t-test was performed. p-values of 0.05 or less were regarded as statistically significant.
Two identical frames of photocells were placed at two levels, 40 and 125 mm above the floor, respectively. The open-field was enclosed in a ventilated, sound-attenuating box with a Perspex top. Measurements were made in the dark and performed between 0.900-16.00 h.
The number of photocell beam interruptions were collected on an IBM-compatible PC computer allowing the registration of locomotor activity (all interruptions of photobeams at the lower level) and rearing (all interruptions of photobeams at the upper level). The data were subject to a square root transformation. For further details on the apparatus and the computer software used, including a schematic drawing of the equipment, see Ericson, E., Samuelsson, J., and Ahlenius, S. (1991). Photocell measurements of rat motor activity: A contribution to sensitivity and variation in behavioral observations. J Pharmacol Meth 25, 111-122. Furthermore, the peripheral activity was measured. By peripheral activity is meant that the animals are located in the corners of the arena. When the animals are frightened, they have a higher tendency to be located in the corners ie have a high peripheral activity. […]

Oxytocin = experiment: Plasma oxytocin determination by radioimmunoassay; settings: 1 mg/kg s.c. for five consecutive days, trunk blood four days after end of treatment, mean ± SD, in pmol/L
Method: as §1, §2, §3
Trunk blood was collected in ice-chilled tubes, containing heparin (10 IU/ml) (Pharmacia-Upjohn, Stockholm, Sweden) and aprotinin (500 IU/ml) (Trasylol, Bayer, Germany). […]
Oxytocin was measured with a specific radioimmunoassay developed in this laboratory (Stock, S., and Uvnäs-Moberg, K. (1988). Increased plasma levels of oxytocin in response to stimulation of the sciatic and vagal nerves and in response to touch and pinch in anaesthetized rats. Acta Physiol Scand 132, 29-34.). […]

Gastrin = experiment: Plasma gastrin determination by immunoassay; settings: 1 mg/kg s.c. for five consecutive days, trunk blood four days after end of treatment, mean ± SD, in pmol/L
Method: as §1, §2, §3
(§4) Trunk blood was collected in ice-chilled tubes, containing heparin (10 IU/ml) (Pharmacia-Upjohn, Stockholm, Sweden) and aprotinin (500 IU/ml) (Trasylol, Bayer, Germany). The blood samples were centrifuged and plasma was removed and frozen (−20° C.).
Gastrin was immunoassayed as described by Smedh, U., and Uvnäs-Moberg, K. (1994) Intracerebroventricularly administered corticotropin-releasing factor releases somatostatin through a colinergic, vagal pathway in freely fed rats. Acta Physiol Scand 151, 241-247. […]

CCK = experiment: Plasma cholecystokinin (CCK) determination by immunoassay; settings: 1 mg/kg s.c. for five consecutive days, trunk blood four days after end of treatment, mean ± SD, in pmol/L
Method: as §1, §2, §3, §4
CCK was immunoassayed as described by Smedh and Uvnäs Moberg, supra. Plasma samples were purified with reversed-phase chromatography using C18 Waters SEP PAK cartridges. […]

male Sprague-Dawley rats [2] = experiment: Measurement of blood pressure with tail cuff on conscious animals; settings: 1 mg/kg s.c. for five consecutive days, two days after last treatment
Method: as §1, §2, §3
Blood pressure and heart rate were measured on conscious animals by placing a cuff (Kent RTBP-002, Somedic Sales, Farsta, Sweden) on the base of the tail. The cuff was connected to a Grass 7P8 sphygmanometer and a Grass 7P8DC amplifier with a printer. The rats were habituated to the entire test procedure for 2-3 weeks before the procedure started.

**Q.** “Cys-Pro-Leu-Gly-NH2 (CPLG-NH2) [SEQ ID NO: 5]” was tested. Which “amount of peripheral activity” value (male Sprague-Dawley rats [1]) did it give?
**A.** decreased

**Q.** And the amount of rearing (male Sprague-Dawley rats [1])?
**A.** significantly decreased

**Q.** What about the locomotor activity (male Sprague-Dawley rats [1]) of the same substance?
**A.** significantly decreased

**Q.** What about the “Hormone levels in hormone treated rats (N = 6): Oxytocin” value (Oxytocin) of the same substance?
**A.** 29.7 ± 7.2

**Q.** And the “Hormone levels in hormone treated rats (N = 6): Gastrin” value (Gastrin)?
**A.** 85 ± 19.3

**Q.** What about the “Hormone levels in hormone treated rats (N = 6): CCK” value (CCK) of the same substance?
**A.** 8.4 ± 3.5

**Q.** What about the “Diastolic blood pressure, value in hormone treated rats (N = 6)” value (male Sprague-Dawley rats [2]; mean ± SD) of the same substance?
**A.** 87.3 ± 18.9

**Q.** What about the “Systolic blood pressure, value in hormone treated rats (N = 6)” value (male Sprague-Dawley rats [2]; mean ± SD) of the same substance?
**A.** 116 ± 9.1

**Q.** And the blood pressure (male Sprague-Dawley rats [2]; vs saline control)?
**A.** significantly decreased
